Reference: patent publication US20240293397A1 (H. Lundbeck A/S, priority 2010, published 2024)
Structures can show the parent of a compound that is named as a salt. Where two headings read alike, the source gives them in different places.

Legend:
[1] = Properties of polymorphic forms and salts (stability, solubility, hygroscopicity); format: physicochemical
Experimental: The polymorphic forms have different properties.
When a compound is administered as an oral drop formulation, a few drops of a concentrated, liquid formulation of said drug is measured out and added to a glass of water, juice or the like that the patient drinks. As an example, the antidepressant cipramil is provided as an oral drop formulation at 40 mg/ml.

[2] = Long-term effects on body weight, relapse prevention study in patients with major depressive disorder; format: in vivo, human; conditions: for Δ weight / ≥7% weight gain: MDD
Text: The recruitment of patients took place over time, and since the end of the study was defined by the last patient having completed the 24 weeks study, some patients received up to 64 weeks double-blind placebo-controlled treatment. This study is also reported in poster NR4-14 presented at the 164th Annual Meeting of the American Psychiatric Association, May 14-18 2011, Honolulu, Hawaii, USA.
(§1) The tables below show the mean difference in weight relative to the start of the open label period and to the time of randomisation and the fraction of patients experiencing equal to or more than […] during the study, i.e. potentially clinically significant increase.

[3] = Long-term effects on body weight, relapse prevention study in patients with generalised anxiety disorder; format: in vivo, human; conditions: for Δ weight / ≥7% weight gain: GAD
Text: The recruitment of patients took place over time, and since the end of the study was defined by the last patient having completed at least 24 weeks, some patients received up to 56 weeks double-blind placebo-controlled treatment.
as §1

[4] = biological target: T1, 5-HT3 receptor (Homo sapiens, UniProt P46098); conditions: in vitro; cited from earlier work
T1 sequence (P46098 24-478): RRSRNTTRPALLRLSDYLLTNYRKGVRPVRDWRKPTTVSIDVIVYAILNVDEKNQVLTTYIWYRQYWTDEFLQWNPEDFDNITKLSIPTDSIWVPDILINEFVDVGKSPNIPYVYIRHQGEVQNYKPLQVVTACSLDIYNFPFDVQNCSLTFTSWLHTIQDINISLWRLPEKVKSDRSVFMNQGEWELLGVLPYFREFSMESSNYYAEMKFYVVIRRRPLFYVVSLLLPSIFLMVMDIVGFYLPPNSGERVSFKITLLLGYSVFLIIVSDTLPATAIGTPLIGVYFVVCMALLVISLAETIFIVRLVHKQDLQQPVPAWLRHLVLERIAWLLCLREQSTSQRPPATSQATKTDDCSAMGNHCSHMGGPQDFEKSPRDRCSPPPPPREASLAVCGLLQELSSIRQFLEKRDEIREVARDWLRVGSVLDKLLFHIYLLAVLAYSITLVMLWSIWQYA

[5] = biological target: 5-HT7 receptor (Homo sapiens, UniProt P34969); conditions: in vitro; cited from earlier work
[6] = biological target: 5-HT1B receptor (Homo sapiens, UniProt P28222); conditions: in vitro; cited from earlier work
[7] = biological target: 5-HT transporter (Homo sapiens, UniProt P31645); conditions: in vitro; cited from earlier work
[8] = tested on: neurotransmitters serotonin, noradrenalin, dopamine, acetylcholine and histamine; conditions: in vivo nonclinical; cited from earlier work
[9] = six weeks, cited from earlier work
[10] = long-term (up to two years) relapse prevention study; cited from earlier work
[11] = OCD patients; end of 2.5 years study; cited from earlier work
[12] = long-term study (26-32 weeks); cited from earlier work
[13] = six week study; cited from earlier work
[14] = 566 patients, eight weeks; cited from earlier work
[15] = 324 patients, eight weeks; cited from earlier work
[16] = week 12, relative to start of open label period (t = 0), 204 patients
[17] = week 24, relative to start of open label period (t = 0), 199 patients
[18] = week 24, relative to time of randomisation (t = 12 weeks), 199 patients
[19] = week 36, relative to start of open label period (t = 0), 157 patients
[20] = week 36, relative to time of randomisation (t = 12 weeks), 157 patients
[21] = week 48, relative to start of open label period (t = 0), 90 patients
[22] = week 48, relative to time of randomisation (t = 12 weeks), 90 patients
[23] = week 60, relative to start of open label period (t = 0), 52 patients
[24] = week 60, relative to time of randomisation (t = 12 weeks), 52 patients
[25] = week 72, relative to start of open label period (t = 0), 19 patients
[26] = week 72, relative to time of randomisation (t = 12 weeks), 19 patients
[27] = week 76, relative to start of open label period (t = 0), 3 patients
[28] = week 76, relative to time of randomisation (t = 12 weeks), 3 patients
[29] = week 20, relative to start of open label period (t = 0), 227 patients
[30] = week 32, relative to start of open label period (t = 0), 220 patients
[31] = week 32, relative to time of randomisation (t = 20 weeks), 221 patients
[32] = week 44, relative to start of open label period (t = 0), 179 patients
[33] = week 44, relative to time of randomisation (t = 20 weeks), 180 patients
[34] = week 56, relative to start of open label period (t = 0), 84 patients
[35] = week 56, relative to time of randomisation (t = 20 weeks), 84 patients
[36] = week 68, relative to start of open label period (t = 0), 28 patients
[37] = week 68, relative to time of randomisation (t = 20 weeks), 28 patients
[38] = week 76, relative to start of open label period (t = 0), 4 patients
[39] = week 76, relative to time of randomisation (t = 20 weeks), 4 patients

Sequence of 5-HT7 receptor (P34969 whole entry): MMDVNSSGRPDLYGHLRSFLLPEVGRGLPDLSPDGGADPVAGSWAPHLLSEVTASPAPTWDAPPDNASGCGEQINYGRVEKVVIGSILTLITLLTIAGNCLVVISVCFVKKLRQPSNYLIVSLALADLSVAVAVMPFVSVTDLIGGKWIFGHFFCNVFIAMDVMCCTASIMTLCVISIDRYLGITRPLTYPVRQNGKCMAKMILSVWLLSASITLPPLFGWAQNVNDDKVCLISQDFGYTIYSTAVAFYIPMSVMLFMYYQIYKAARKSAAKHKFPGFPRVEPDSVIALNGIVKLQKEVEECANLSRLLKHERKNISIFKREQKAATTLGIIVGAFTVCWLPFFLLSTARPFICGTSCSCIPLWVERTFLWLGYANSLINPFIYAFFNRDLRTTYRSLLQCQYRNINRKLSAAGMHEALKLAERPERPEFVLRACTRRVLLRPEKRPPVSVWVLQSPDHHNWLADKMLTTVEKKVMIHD
Sequence of 5-HT transporter (P31645 whole entry, species assumed): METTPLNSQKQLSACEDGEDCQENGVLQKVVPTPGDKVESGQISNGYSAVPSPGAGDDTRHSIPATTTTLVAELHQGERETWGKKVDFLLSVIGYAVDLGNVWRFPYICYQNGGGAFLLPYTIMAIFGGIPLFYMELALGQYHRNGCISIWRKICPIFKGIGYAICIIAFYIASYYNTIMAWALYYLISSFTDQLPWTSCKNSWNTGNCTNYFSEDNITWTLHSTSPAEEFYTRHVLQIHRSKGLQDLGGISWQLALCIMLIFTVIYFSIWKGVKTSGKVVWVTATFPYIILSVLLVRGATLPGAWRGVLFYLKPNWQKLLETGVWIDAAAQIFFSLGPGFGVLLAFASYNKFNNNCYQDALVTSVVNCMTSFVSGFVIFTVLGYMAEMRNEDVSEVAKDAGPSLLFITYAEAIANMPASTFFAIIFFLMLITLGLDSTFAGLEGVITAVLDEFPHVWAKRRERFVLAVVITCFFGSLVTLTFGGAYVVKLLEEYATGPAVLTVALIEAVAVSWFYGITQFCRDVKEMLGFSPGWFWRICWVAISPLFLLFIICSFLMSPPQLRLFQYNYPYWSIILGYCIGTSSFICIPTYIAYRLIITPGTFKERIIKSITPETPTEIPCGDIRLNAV
Sequence of 5-HT1B receptor (P28222 whole entry): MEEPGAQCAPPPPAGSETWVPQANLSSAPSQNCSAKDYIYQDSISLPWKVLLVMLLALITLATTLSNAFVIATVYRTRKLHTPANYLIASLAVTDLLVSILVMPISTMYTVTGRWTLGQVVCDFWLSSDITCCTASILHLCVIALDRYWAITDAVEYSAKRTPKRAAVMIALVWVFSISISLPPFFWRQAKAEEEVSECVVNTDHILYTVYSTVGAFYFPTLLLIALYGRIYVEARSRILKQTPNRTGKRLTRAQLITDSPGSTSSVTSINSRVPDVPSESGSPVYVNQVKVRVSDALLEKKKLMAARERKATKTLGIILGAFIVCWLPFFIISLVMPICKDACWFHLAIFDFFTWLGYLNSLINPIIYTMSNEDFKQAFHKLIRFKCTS

Cc1ccc(Sc2ccccc2N2CCNCC2)c(C)c1 (racemic) [DL lactate salt of Compound I, DL-lactate salt of 1-[2-(2,4-dimethylphenylsulphanyl)-phenyl]piperazine]
solubility [1]: high solubility

Cc1ccc(Sc2ccccc2N2CCNCC2)c(C)c1 [Compound I HBr, 1-[2-(2,4-dimethyl-phenylsulfanyl)phenyl]piperazine HBr]
weight gain versus placebo after long-term treatment ([2]; MDD patients, data of tables 1 and 2): no meaningful difference
Δ weight [2, 16]: 0.0 kg
≥7% weight gain [2, 16]: 2.0%
Δ weight [2, 17]: 0.3 kg
≥7% weight gain [2, 17]: 6.5%
Δ weight [2, 18]: 0.4 kg
≥7% weight gain [2, 18]: 2.0%
Δ weight [2, 19]: 0.6 kg
≥7% weight gain [2, 19]: 8.9%
Δ weight [2, 20]: 0.6 kg
≥7% weight gain [2, 20]: 6.4%
Δ weight [2, 21]: 0.7 kg
≥7% weight gain [2, 21]: 8.9%
Δ weight [2, 22]: 0.9 kg
≥7% weight gain [2, 22]: 8.9%
Δ weight [2, 23]: 0.4 kg
≥7% weight gain [2, 23]: 9.6%
Δ weight [2, 24]: 0.8 kg
≥7% weight gain [2, 24]: 13.5%
Δ weight [2, 25]: -0.2 kg
≥7% weight gain [2, 25]: 10.5%
Δ weight [2, 26]: 0.3 kg
≥7% weight gain [2, 26]: 10.5%
Δ weight [2, 27]: -2.3 kg
≥7% weight gain [2, 27]: 0.0%
Δ weight [2, 28]: -0.8 kg
≥7% weight gain [2, 28]: 0.0%
weight gain versus placebo after long-term treatment ([3]; combined data of tables 1-4 (MDD and GAD patients)): no meaningful difference
Δ weight [3, 29]: 0.3 kg
≥7% weight gain [3, 29]: 2.6%
Δ weight [3, 30]: 0.5 kg
≥7% weight gain [3, 30]: 3.6%
Δ weight [3, 31]: 0.3 kg
≥7% weight gain [3, 31]: 0.9%
Δ weight [3, 32]: 0.8 kg
≥7% weight gain [3, 32]: 8.4%
Δ weight [3, 33]: 0.5 kg
≥7% weight gain [3, 33]: 4.4%
Δ weight [3, 34]: 1.5 kg
≥7% weight gain [3, 34]: 17.9%
Δ weight [3, 35]: 1.1 kg
≥7% weight gain [3, 35]: 10.7%
Δ weight [3, 36]: 1.5 kg
≥7% weight gain [3, 36]: 10.7%
Δ weight [3, 37]: 1.7 kg
≥7% weight gain [3, 37]: 10.7%
Δ weight [3, 38]: 0.9 kg
≥7% weight gain [3, 38]: 0.0%
Δ weight [3, 39]: 1.6 kg
≥7% weight gain [3, 39]: 0.0%

Cc1ccc(Sc2ccccc2N2CCNCC2)c(C)c1 [Compound I, 1-[2-(2,4-dimethyl-phenylsulfanyl)phenyl]piperazine]
activity at 5-HT3 receptor [4]: antagonist
activity at 5-HT7 receptor [5]: antagonist
activity at 5-HT1B receptor [6]: partial agonist
activity at 5-HT transporter [7]: inhibitor
levels of serotonin, noradrenalin, dopamine, acetylcholine and histamine in specific areas of the brain [8]: enhances levels
changes in clinical laboratory results, vital signs, weight, or ECG parameters ([9]; MDD patients): no clinically relevant changes
treatment of depressive and anxious symptoms versus placebo ([9]; approximately 100 patients in each arm, MDD): separates significantly from placebo

CN(C)CCC=C1c2ccccc2CCc2ccccc21 [amitriptyline]
proportion of patients showing a PCS increase in body weight [10]: 22%

CN(C)CCCC1(c2ccc(F)cc2)OCc2cc(C#N)ccc21 (stereo not shown) [citalopram]
percentage of patients with PCS weight increase (7% or above compared to baseline) [11]: 14.3%

CN(C)CCCN1c2ccccc2CCc2ccc(Cl)cc21 [clomiptramine]
percentage of patients with PCS weight increase (7% or above compared to baseline) [11]: 34.8%

CNCCC(Oc1ccc(C(F)(F)F)cc1)c1ccccc1 (stereo not shown) [fluoxetine]
proportion of patients showing a PCS increase in body weight [12]: 6.6%
percentage of patients with PCS weight increase (7% or above compared to baseline) [11]: 8.7%

Fc1ccc([C@@H]2CCNC[C@H]2COc2ccc3c(c2)OCO3)cc1 [paroxetine]
proportion of patients showing a PCS increase in body weight [12]: 25.5%
weight gain [13]: no weight gain was noted
weight change [14]: small weight loss
effects on weight [15]: no substantial effects on weight
percentage of patients with PCS weight increase (7% or above compared to baseline) [11]: 14.3%

CN[C@H]1CC[C@@H](c2ccc(Cl)c(Cl)c2)c2ccccc21 [sertraline]
proportion of patients showing a PCS increase in body weight [12]: 4.2%
percentage of patients with PCS weight increase (7% or above compared to baseline) [11]: 4.5%
